From patent publication US10662218B2, “Analogs of celastrol” (ERX Pharmaceuticals, Inc., priority 2015, dated 2020)
Where “and” joins values, the source holds several entries; their conditions need not be identical. Equal entries are not always repeated. Where two headings read alike, the source gives them in different places.

How the values were obtained:
[1] = test system: C57BL/6 Diet Induced Obese (DIO) mice; experiment: Oral (P.O.) administration study in DIO mice: animal fate (mortality) and clinical observations; conditions: 2 mg/kg
Method: Male C57BL/6 DIO mice were assigned to 12 groups, and doses of 2 mg/kg Celastrol (ERX1000-4), ERX1006, ERX1007, ERX1037, ERX1060, ERX1077, ERX1107, ERX1149, ERX1168, ERX1177, and Pristimerin were administered to Groups 2 through 12, respectively. Animals were dosed via oral gavage once daily for 10 days at a volume of 2 mL/kg. The vehicle control article was 1% methyl cellulose (400 cps) in citric acid and phosphate buffer.
Parameters assessed included mortality, clinical observations, body weights and food consumption and blood glucose evaluations.
All animals were anesthetized via carbon dioxide, sacrificed, and discarded without further evaluation on Day 11.

[2] = test system: C57BL/6 Diet Induced Obese (DIO) mice; experiment: Oral (P.O.) administration study in DIO mice: in vivo activity, body weights; set-up: species or system mouse; conditions: for Individual Body Weight: individual male animals; for change in vivo at 2 mg/kg: Mus musculus, po, read-out: Body weight, %-Diff
Text: The purpose of this study was to assess test articles in the Diet Induced Obese (DIO) mouse.
Male C57BL/6 Diet Induced Obese (DIO) mice were received from Taconic. Animals were acclimated to housing conditions for at least 1 week prior to vehicle acclimation dosing. Animals were acclimated to oral gavage dosing with vehicle once daily for Days 11 through 14 of the predose phase.
At initiation of dosing, animals were 21 to 22 weeks old, and their body weights ranged from 29.8 to 40.1 g.
Dose formulations were administered by oral gavage once daily for 10 days at a dose volume of 2 mL/kg. Doses were based on the most recently recorded scheduled body weight.
Body weights were recorded daily on Days 11 through 14 of the predose phase. Body weights were collected for all animals daily during the dosing phase prior to dosing.
Descriptive statistics (n, mean, standard error of the mean, standard deviation) were completed. Additionally, one-way analysis of variance followed by Dunnett's post-hoc test were performed on body weight (cumulative body weight change), glucose (glucose percent change), and food consumption (cumulative food consumption). Area under the curve (for body weight, cumulative body weight change, daily body weight change, and food consumption) was computed for treatment groups. An appropriate comparison test, such as one-way analysis of variance and Dunnett's, was performed on the group means for the area under the curve computations. Any additional statistical analysis and interpretation of the results were the responsibility of the sponsor.

[3] = DIO mice, male, 2 mg/kg, phase DSNG, Day 7
[4] = DIO mice, male, 2 mg/kg, phase DSNG, Day 8
[5] = DIO mice, male, 2 mg/kg, phase DSNG, Day 9
[6] = DIO mice, male, 2 mg/kg, phase DSNG, Day 10
[7] = DIO mice, male, 2 mg/kg, phase DSNG, Day 11
[8] = Day 1, DSNG phase, 2 mg/kg, male, N=5
[9] = Day 2, DSNG phase, 2 mg/kg, male, N=5
[10] = Day 3, DSNG phase, 2 mg/kg, male, N=5
[11] = Day 4, DSNG phase, 2 mg/kg, male, N=5
[12] = Day 5, DSNG phase, 2 mg/kg, male, N=5
[13] = Day 6, DSNG phase, 2 mg/kg, male, N=5

CC(=O)N(C)C[C@]1(C)CC[C@]2(C)CC[C@]3(C)C4=CC=C5C(=CC(=O)C(O)=C5C)[C@]4(C)CC[C@@]3(C)[C@@H]2C1 [ERX1149] was tested, and the “Individual Animal Fate: Fate Status” value ([1]; mouse, in vivo) was “Scheduled Sacrifice”, the “Individual Body Weight” value ([2]; 2 mg/kg, Phase Day DSNG 1) was 33.3 g and 35.8 g and 39.7 g and 31.5 g and 34.3 g and the “Individual Body Weight” value ([2]; 2 mg/kg, Phase Day DSNG 2) was 32.2 g and 34.8 g and 39.9 g and 31.7 g and 34.1 g. The “Individual Body Weight” value ([2]; 2 mg/kg, Phase Day PRED 11 (pre-dose baseline)) was 33.3 g and 38.3 g and 41.4 g and 33.7 g and 35.6 g, the “Individual Body Weight” value ([2]; 2 mg/kg, Phase Day PRED 12 (pre-dose baseline)) was 33.3 g and 37.3 g and 41.5 g and 33.4 g and 36.3 g and the “Individual Body Weight” value ([2]; 2 mg/kg, Phase Day PRED 13 (pre-dose baseline)) was 33.1 g and 36.8 g and 41.4 g and 32.3 g and 35.2 g. For the same compound, the “Individual Body Weight” value ([2]; 2 mg/kg, Phase Day PRED 14 (pre-dose baseline)) was 33.5 g and 36.1 g and 41.0 g and 32.5 g and 36.5 g, the “Body weight, Mean” value [2, 3] was 32.8 g and the “Body weight, Mean” value [2, 4] was 33.3 g. For the same compound, the “Body weight, Mean” value [2, 5] was 33.1 g, the “Body weight, Mean” value [2, 6] was 33.5 g and the “Body weight, Mean” value [2, 7] was 33.6 g. The “Body weight, Mean” value [2, 8] was 34.9 g, the “Body weight, Mean” value [2, 9] was 34.5 g and the “Body weight, Mean” value [2, 10] was 34.1 g. For the same compound, the “Body weight, Mean” value [2, 11] was 34.0 g, the “Body weight, Mean” value [2, 12] was 33.5 g and the “Body weight, Mean” value [2, 13] was 33.1 g. For the same compound, the change in vivo at 2 mg/kg ([2]; 24 h, Day 1, DSNG phase, 2 mg/kg, male, difference of group mean) was 2%, the change in vivo at 2 mg/kg ([2]; 48 h, Day 2, DSNG phase, 2 mg/kg, male, difference of group mean) was 0% and the change in vivo at 2 mg/kg ([2]; 72 h, Day 3, DSNG phase, 2 mg/kg, male, difference of group mean) was 1%. The change in vivo at 2 mg/kg ([2]; 96 h, Day 4, DSNG phase, 2 mg/kg, male, difference of group mean) was 2%, the change in vivo at 2 mg/kg ([2]; 120 h, Day 5, DSNG phase, 2 mg/kg, male, difference of group mean) was -1% and the change in vivo at 2 mg/kg ([2]; 144 h, Day 6, DSNG phase, 2 mg/kg, male, difference of group mean) was -1%. The change in vivo at 2 mg/kg ([2]; 168 h, DIO mice, male, 2 mg/kg, phase DSNG, Day 7, difference of group mean from vehicle group 1) was -2%, the change in vivo at 2 mg/kg ([2]; 192 h, DIO mice, male, 2 mg/kg, phase DSNG, Day 8, difference of group mean from vehicle group 1) was -1% and the change in vivo at 2 mg/kg ([2]; 216 h, DIO mice, male, 2 mg/kg, phase DSNG, Day 9, difference of group mean from vehicle group 1) was 0%. It also gave a change in vivo at 2 mg/kg ([2]; 240 h, DIO mice, male, 2 mg/kg, phase DSNG, Day 10, difference of group mean from vehicle group 1) of 0% and a change in vivo at 2 mg/kg ([2]; 264 h, DIO mice, male, 2 mg/kg, phase DSNG, Day 11, difference of group mean from vehicle group 1) of -1%.

COC(=O)[C@]1(C)CC[C@]2(C)CC[C@]3(C)C4=CC=C5C(=CC(=O)C(O)=C5C)[C@]4(C)CC[C@@]3(C)[C@@H]2C1 [Pristimerin, reference compound] was tested, and the “Individual Animal Fate: Fate Status” value ([1]; individual male DIO mouse, phase of fate Dosing, phase week 2, phase day 11) was “Scheduled Sacrifice”, the “Body weight, Mean” value [2, 3] was 33.5 g and the “Body weight, Mean” value [2, 4] was 33.1 g. The “Body weight, Mean” value [2, 5] was 32.9 g, the “Body weight, Mean” value [2, 6] was 33.2 g and the “Body weight, Mean” value [2, 7] was 33.9 g. For the same compound, the “Body weight, Mean” value [2, 8] was 34.2 g, the “Body weight, Mean” value [2, 9] was 34.0 g and the “Body weight, Mean” value [2, 10] was 33.7 g. For the same compound, the “Body weight, Mean” value [2, 11] was 33.3 g, the “Body weight, Mean” value [2, 12] was 33.3 g and the “Body weight, Mean” value [2, 13] was 33.4 g. For the same compound, the change in vivo at 2 mg/kg ([2]; 24 h) was 0%, the change in vivo at 2 mg/kg ([2]; 48 h) was -1% and the change in vivo at 2 mg/kg ([2]; 72 h) was -1%. For the same compound, the change in vivo at 2 mg/kg ([2]; 96 h) was 0%, the change in vivo at 2 mg/kg ([2]; 120 h) was -1% and the change in vivo at 2 mg/kg ([2]; 144 h) was 0%. It also gave a change in vivo at 2 mg/kg ([2]; 168 h) of 0%, a change in vivo at 2 mg/kg ([2]; 192 h) of -2% and a change in vivo at 2 mg/kg ([2]; 216 h) of -1%. The change in vivo at 2 mg/kg ([2]; 240 h) was -1%, the change in vivo at 2 mg/kg ([2]; 264 h) was -1% and the “Individual Body Weight, PRED 11” value ([2]; individual male DIO mouse of the 2 mg/kg group, pre-dose phase day 11 (baseline)) was 42.4 g and 35.2 g and 31.7 g and 38.2 g and 33.9 g. The “Individual Body Weight, PRED 12” value ([2]; individual male DIO mouse of the 2 mg/kg group, pre-dose phase day 12 (baseline)) was 41.2 g and 34.5 g and 31.0 g and 37.5 g and 32.5 g, the “Individual Body Weight, PRED 13” value ([2]; individual male DIO mouse of the 2 mg/kg group, pre-dose phase day 13 (baseline)) was 41.3 g and 33.4 g and 31.4 g and 37.3 g and 32.9 g and the “Individual Body Weight, PRED 14” value ([2]; individual male DIO mouse of the 2 mg/kg group, pre-dose phase day 14 (baseline)) was 41.9 g and 35.0 g and 31.6 g and 37.6 g and 33.1 g. For the same compound, the “Individual Body Weight, DSNG 1” value ([2]; individual male DIO mouse, 2 mg/kg, dosing phase day 1, 2 mg/kg) was 40.0 g and 33.3 g and 29.8 g and 35.5 g and 32.3 g and the “Individual Body Weight, DSNG 2” value ([2]; individual male DIO mouse, 2 mg/kg, dosing phase day 2, 2 mg/kg) was 39.4 g and 33.1 g and 30.2 g and 35.4 g and 32.1 g.
